Measured values reported in patent US10508109B2 (priority 2015, dated 2019).

What was measured:
[1] = tested on: CCD-18Co; experiment: Cell-based assay, anti-proliferative activity (Cell Counting Kit-8, 72 hours); settings: Homo sapiens; CCD-18Co cells, 72 hours, Cell Counting Kit-8; read-out: IC50 (μM) CCD-18Co
Outline: (§1)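 IC50 values reflect cell growth measured by Cell Counting Kit-8 following 72 hours of inhibitor exposure across a twofold dilution range up to 100 micro-M.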

[2] = tested on: HFL1; experiment: as above; settings: Homo sapiens; HFL1 cells, 72 hours, Cell Counting Kit-8; read-out: IC50 (μM) HFL1
Outline: as §1

[3] = tested on: PC14; experiment: as above; settings: Homo sapiens, PC-14; PC14 cells, 72 hours, Cell Counting Kit-8; read-out: IC50 (μM) PC14
Outline: as §1

[4] = tested on: HCT-116; experiment: as above; settings: Homo sapiens; HCT-116 cells, 72 hours, Cell Counting Kit-8; read-out: IC50 (μM) HCT-116
Outline: as §1

[5] = target: SUV39H2 (Homo sapiens (Human), UniProt Q9H5I1); settings: read-out: IC50 (μM) Suv 39H2 assay; enzyme assay
SUV39H2, sequence (Q9H5I1 whole entry): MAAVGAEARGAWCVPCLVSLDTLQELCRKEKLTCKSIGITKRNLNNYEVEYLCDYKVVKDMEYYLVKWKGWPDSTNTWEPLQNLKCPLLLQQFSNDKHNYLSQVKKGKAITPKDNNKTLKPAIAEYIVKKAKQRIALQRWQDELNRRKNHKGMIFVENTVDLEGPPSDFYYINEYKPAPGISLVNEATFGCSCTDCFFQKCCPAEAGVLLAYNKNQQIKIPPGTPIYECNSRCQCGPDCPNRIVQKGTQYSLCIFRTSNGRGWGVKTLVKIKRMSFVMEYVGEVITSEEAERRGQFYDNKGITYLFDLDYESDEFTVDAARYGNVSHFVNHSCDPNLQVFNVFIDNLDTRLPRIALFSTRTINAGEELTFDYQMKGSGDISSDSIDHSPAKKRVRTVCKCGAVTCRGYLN

[6] = tested on: A549; experiment: Cell-based assay, anti-proliferative activity (Cell Counting Kit-8, 72 hours); settings: Homo sapiens; A549 cells, 72 hours, Cell Counting Kit-8; read-out: IC50 (μM) A549
Outline: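 Cells were seeded in 96-well plates and exposed to candidate inhibitors. Cellular growth was then determined with the colorimetric kit, and IC50 values were calculated from the growth data.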

Row | Structure (SMILES) | IC50 [1] [µM] | IC50 [2] [µM] | IC50 [3] [µM] | IC50 [4] [µM] | IC50 [5] [µM] | IC50 [6] [µM]
1 | COc1cc(OC)c(-c2cn3ccc(N4CCN(c5nccc(N)n5)CC4)cc3n2)cc1Cl [Example 286, 2-(4-(2-(5-chloro-2,4-dimethoxyphenyl)imidazo[1,2-a]pyridin-7-yl)piperazin-1-yl)-pyrimidin-4-amine] | 0.71 | 0.7 | 0.63 | 0.56 | 0.00881 | 0.65
2 | COc1cc(OC)c(-c2cn3ccc(N[C@H]4CC[C@H](Nc5ccccn5)CC4)cc3n2)cc1Cl [Example 287, N^1-(2-(5-chloro-2,4-dimethoxyphenyl)imidazo[1,2-a]pyridin-7-yl)-N^4-(pyridin-2-yl)-trans-cyclohexane-1,4-diamine] | 0.81 | 0.78 | 0.94 | 0.91 | 0.0327 | 0.8
3 | COc1cc(OC)c(-c2cn3ccc(OC4CCN(S(=O)(=O)c5nccn5C)CC4)cc3n2)cc1Cl [Example 288, 2-(5-chloro-2,4-dimethoxyphenyl)-7-((1-((1-methyl-1H-imidazol-2-yl)sulfonyl)piperidin-4-yl)oxy)imidazo[1,2-a]pyridine] | 1.5 | 1.7 | 1.2 | 0.98 | 0.0928 | 0.8
4 | COc1cc(OC)c(-c2cn3ccc(N[C@H]4CC[C@H](CN5CCN(S(C)(=O)=O)CC5)CC4)cc3n2)cc1Cl [Example 289, 2-(5-chloro-2,4-dimethoxyphenyl)-trans-N-(4-((4-(methylsulfonyl)piperazin-1-yl)methyl)cyclohexyl)imidazo-[1,2-a]pyridin-7-amine] | 0.72 | 0.74 | 0.77 | 0.83 | 0.028 | 0.63
5 | COc1cc(OC)c(-c2nc3cc(N4CCN(C(=O)OC(C)(C)C)CC4)ccn3c2I)cc1Cl [Example 290, tert-butyl 4-(2-(5-chloro-2,4-dimethoxyphenyl)-3-iodoimidazo[1,2-a]-pyridin-7-yl)piperazine-1-carboxylate] | 1.4 | 1.3 | 0.61 | 1.3 | 0.00975 | 1.3
6 | COc1cc(OC)c(-c2cn3ccc(N[C@H]4CC[C@H](NCc5ccccc5)CC4)cc3n2)cc1Cl [Example 291, N^1-benzyl-N^4-(2-(5-chloro-2,4-dimethoxyphenyl)imidazo[1,2-a]pyridin-7-yl)-trans-cyclohexane-1,4-diamine] | 0.76 | 0.93 | 0.71 | 0.67 | 0.041 | 0.72
7 | COc1cc(OC)c(-c2cn3ccc(N4CCN(Cc5ccncc5)CC4)cc3n2)cc1Cl [Example 292, 2-(5-chloro-2,4-dimethoxyphenyl)-7-(4-(pyridin-4-ylmethyl)piperazin-1-yl)imidazo[1,2-a]pyridine] | 1.3 | 1.2 | 0.68 | 1.3 | 0.00637 | 1.2
8 | COc1cc(OC)c(-c2cn3ccc(N4CCN(c5ccc(C#N)cn5)CC4)cc3n2)cc1Cl [Example 293, 6-(4-(2-(5-chloro-2,4-dimethoxyphenyl)imidazo[1,2-a]pyridin-7-yl)-piperazin-1-yl)nicotinonitrile] | 0.62 | 1.3 | 1 | 0.33 | 0.0226 | 0.67
9 | COc1cc(OC)c(-c2cn3ccc(N4CCN(c5ccnc(N6CCOCC6)n5)CC4)cc3n2)cc1Cl [Example 294, 4-(4-(4-(2-(5-chloro-2,4-dimethoxyphenyl)imidazo[1,2-a]pyridin-7-yl)-piperazin-1-yl)pyrimidin-2-yl)morpholine] | 1.3 | 2.3 | 1 | 0.78 | 0.0283 | 1.1
10 | COc1cc(OC)c(-c2cn3ccc(N4CCN(c5ccnc(N6CCCCC6)n5)CC4)cc3n2)cc1Cl [Example 295, 2-(5-chloro-2,4-dimethoxyphenyl)-7-(4-(2-(piperidin-1-yl)pyrimidin-4-yl)piperazin-1-yl)imidazo[1,2-a]pyridine] | 1.3 | 1.4 | 0.93 | 0.93 | 0.0598 | 0.89
11 | COc1cc(OC)c(-c2cn3ccc(N4CCN(c5cccnc5)CC4)cc3n2)cc1Cl [Example 296, 2-(5-chloro-2,4-dimethoxyphenyl)-7-(4-(pyridin-3-yl)piperazin-1-yl)imidazo[1,2-a]pyridine] | 0.79 | 0.73 | 0.64 | 0.56 | 0.013 | 0.66
12 | COc1cc(OC)c(-c2cn3ccc(N4CCN(c5ccnc(N(C)C)n5)CC4)cc3n2)cc1Cl [Example 297, 4-(4-(2-(5-chloro-2,4-dimethoxyphenyl)imidazo[1,2-a]pyridin-7-yl)-piperazin-1-yl)-N,N-dimethylpyrimidin-2-amine] | 0.72 | 0.65 | 0.47 | 0.33 | 0.0342 | 0.43
13 | COc1cc(OC)c(-c2cn3ccc(N4CC[C@H](NCc5ccccn5)C4)cc3n2)cc1Cl [Example 299, (S)-1-(2-(5-chloro-2,4-dimethoxyphenyl)imidazo[1,2-a]pyridin-7-yl)-N-(pyridin-2-ylmethyl)pyrrolidin-3-amine] | 5.5 | 6.2 | 3.5 | 4.5 | 0.00721 | 5.3
14 | COc1cc(OC)c(-c2cn3ccc(N4CC[C@H](NCc5cccnc5)C4)cc3n2)cc1Cl [Example 300, (S)-1-(2-(5-chloro-2,4-dimethoxyphenyl)imidazo[1,2-a]pyridin-7-yl)-N-(pyridin-3-ylmethyl)pyrrolidin-3-amine] | 6.1 | 7.1 | 3.5 | 4.7 | 0.0127 | 6
15 | COc1cc(OC)c(-c2cn3ccc(N4CC[C@H](NCc5ccccc5)C4)cc3n2)cc1Cl [Example 301, (S)—N-benzyl-1-(2-(5-chloro-2,4-dimethoxyphenyl)imidazo[1,2-a]pyridin-7-yl)pyrrolidin-3-amine] | 1.1 | 0.69 | 1.5 | 0.79 | 0.0107 | 1.4
16 | COc1cc(OC)c(-c2cn3ccc(N4CC[C@H](NCc5ccc(F)cc5)C4)cc3n2)cc1Cl [Example 302, (S)-1-(2-(5-chloro-2,4-dimethoxyphenyl)imidazo[1,2-a]pyridin-7-yl)-N-(4-fluorobenzyl)pyrrolidin-3-amine] | 1.1 | 0.72 | 1.4 | 0.92 | 0.0153 | 1.5
17 | COc1cc(OC)c(-c2cn3ccc(N4CC[C@H](NCc5ccc(C(F)(F)F)cc5)C4)cc3n2)cc1Cl [Example 303, (S)-1-(2-(5-chloro-2,4-dimethoxyphenyl)imidazo[1,2-a]pyridin-7-yl)-N-(4-(trifluoromethyl)benzyl)pyrrolidin-3-amine] | 0.86 | 0.68 | 0.95 | 0.7 | 0.0278 | 1
18 | COc1cc(OC)c(-c2cn3ccc(N4CC[C@H](NCc5ccc([N+](=O)[O-])cc5)C4)cc3n2)cc1Cl [Example 304, (S)-1-(2-(5-chloro-2,4-dimethoxyphenyl)imidazo[1,2-a]pyridin-7-yl)-N-(4-nitrobenzyl)pyrrolidin-3-amine] | 0.49 | 0.7 | 0.88 | 0.52 | 0.00888 | 0.87
19 | COc1cc(OC)c(-c2cn3ccc(N4CC[C@H](NCc5ccc(C)cc5)C4)cc3n2)cc1Cl [Example 305, (S)-1-(2-(5-chloro-2,4-dimethoxyphenyl)imidazo[1,2-a]pyridin-7-yl)-N-(4-methylbenzyl)pyrrolidin-3-amine] | 0.82 | 0.67 | 0.99 | 0.59 | 0.0117 | 1.1
20 | COc1ccc(CN[C@H]2CCN(c3ccn4cc(-c5cc(Cl)c(OC)cc5OC)nc4c3)C2)cc1 [Example 306, (S)-1-(2-(5-chloro-2,4-dimethoxyphenyl)imidazo[1,2-a]pyridin-7-yl)-N-(4-methoxybenzyl)pyrrolidin-3-amine] | 1.4 | 0.72 | 1.4 | 0.69 | 0.00881 | 1.3
